Here are results for one compound from US20250034531A1, “METHOD FOR PRODUCING STEM CELLS” (priority 2021, published 2025).

Experiment [1] deals with Human peripheral blood mononuclear cells. The settings on record: 10 nmol/L in RPMI 1640 medium with IL-2 added daily; KLF4, OCT3/4, SOX2, c-MYC by CytoTune-iPS 2.0; 14th day; FIG. 2.
Protocol: Human peripheral blood mononuclear cells were put into the culture medium, and a culture medium containing about 1×10^6 monocytes was put into a 24-well plate (1st day). 1 μL of 20 μg/mL IL-2 was added to the culture medium every day. On the third day, the culture medium containing the cells was recovered from the plates, the culture medium was centrifugally separated, and the supernatant was removed. Then, 2 mL of a new HMBPP-containing medium was added to the cells, and 1 mL was put into each of two wells of a 24-well plate.
On the 6th day, the culture medium containing the cells was recovered from the plates, the culture medium was centrifugally separated, and the supernatant was removed. Then, an HMBPP-containing medium was added to the cells, and a culture medium containing 2×10^4 monocytes was put into a 96-well plate. KLF4, OCT3/4, SOX2, and c-MYC were introduced into the cells by using CytoTune-iPS 2.0 (Thermo Fisher Scientific, Inc.). The multiplicity of infection (MOI) was adjusted to be 20 to 30.
On the 7th day, the culture medium containing the cells recovered from the 96-well plate were added with a fresh HMBPP-containing medium and put into a 6-well plate. On the 8th, 10th, and 12th days, a stem cell culture medium (Stem Fit, Ajinomoto Co., Inc.) was added thereto, and thereafter, the culture medium was replaced using the stem cell culture medium.
In the next experiment the test system is Vγ9 gene. The settings on record: genomic DNA of the iPS cells; γδT cells as positive control; FIG. 4.

Protocol for Vγ9 gene: iPS cells were induced in the same manner as in Example 1, except that HMBPP in the HMBPP-containing medium was changed to 5 μL of zoledronic acid (Zol, Sigma-Aldrich Co., LLC).

With `C/C(=C\COP(=O)(O)OP(=O)(O)O)CO` [HMBPP, (E)-4-hydroxy-3-methyl-but-2-enyl pyrophosphate], the “colonies of iPS cells formed” value in experiment [1] was “a plurality of colonies of iPS cells has been formed”. In addition, the “rearranged Vγ9 gene having the J1/J2 gene in the established iPS cells” value in the experiment with Vγ9 gene was “have a Vγ9 gene that has undergone rearrangement”.
